Among the data in patent publication US11339150B2, “Benzimidazole compounds as HDAC6 inhibitors” (OnKure, Inc., priority 2019, dated 2022) are inhibition values, retold here.

For the experiment, the target named is T1, HDAC6 (Homo sapiens, UniProt Q9UBN7).
T1 sequence (Q9UBN7 1-1215): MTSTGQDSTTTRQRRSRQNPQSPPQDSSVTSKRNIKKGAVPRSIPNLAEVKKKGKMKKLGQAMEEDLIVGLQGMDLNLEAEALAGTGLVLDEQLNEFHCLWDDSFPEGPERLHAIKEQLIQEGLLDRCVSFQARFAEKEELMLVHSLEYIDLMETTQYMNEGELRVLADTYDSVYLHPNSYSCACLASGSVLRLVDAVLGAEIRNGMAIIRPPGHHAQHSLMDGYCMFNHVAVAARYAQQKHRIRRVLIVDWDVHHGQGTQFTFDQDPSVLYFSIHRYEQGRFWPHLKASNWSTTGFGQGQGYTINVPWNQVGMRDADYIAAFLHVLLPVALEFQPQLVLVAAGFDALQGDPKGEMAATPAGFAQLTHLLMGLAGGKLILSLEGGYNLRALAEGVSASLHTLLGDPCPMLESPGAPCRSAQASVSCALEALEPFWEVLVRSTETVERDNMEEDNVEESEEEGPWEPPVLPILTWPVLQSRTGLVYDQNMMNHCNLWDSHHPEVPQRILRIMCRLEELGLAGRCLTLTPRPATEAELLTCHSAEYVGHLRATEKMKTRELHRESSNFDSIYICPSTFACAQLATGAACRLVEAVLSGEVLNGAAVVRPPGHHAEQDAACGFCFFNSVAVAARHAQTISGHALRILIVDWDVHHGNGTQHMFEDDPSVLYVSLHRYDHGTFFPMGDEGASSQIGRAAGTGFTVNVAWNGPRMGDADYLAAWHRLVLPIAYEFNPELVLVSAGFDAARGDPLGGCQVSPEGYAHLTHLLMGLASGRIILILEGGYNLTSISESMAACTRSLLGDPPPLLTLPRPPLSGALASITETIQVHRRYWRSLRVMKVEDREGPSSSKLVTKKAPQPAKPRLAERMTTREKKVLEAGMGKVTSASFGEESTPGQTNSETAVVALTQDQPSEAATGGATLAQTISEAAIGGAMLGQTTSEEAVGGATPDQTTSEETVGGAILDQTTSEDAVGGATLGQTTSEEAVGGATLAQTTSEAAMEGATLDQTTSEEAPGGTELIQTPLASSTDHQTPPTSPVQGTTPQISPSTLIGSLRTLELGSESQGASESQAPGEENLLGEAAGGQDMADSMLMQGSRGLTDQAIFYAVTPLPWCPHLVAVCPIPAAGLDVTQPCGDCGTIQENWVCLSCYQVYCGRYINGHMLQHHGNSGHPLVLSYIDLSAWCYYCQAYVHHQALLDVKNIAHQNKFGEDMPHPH
Kind of experiment: HDAC assay (fluorogenic substrate), HDAC6. In kind it is biochemical. How it is done:
Base Reaction buffer: 50 mM Tris-HCl, pH8.0, 137 mM NaCl, 2.7 mM KCl, and 1 mM MgCl2. Add fresh: 1 mg/ml BSA, 1% DMSO
Fluorogenic HDAC General Substrate: 50 μM, Arg-His-Lys-Lys(Ac)
• 1. Deliver 2× enzyme in wells of reaction plate except No Enzyme control wells. Add buffer in No En wells. • 2. Deliver compounds in 100% DMSO into the enzyme mixture by Acoustic technology (Echo550; nanoliter range). Spin down and pre-incubation. • 3. Deliver 2× Substrate Mixture (Fluorogenic HDAC Substrate and co-factor if applicable) in all reaction wells to initiate the reaction. Spin and shake. • 4. Incubate for 30 min for Class 2A, 1 hr for HDAC1, 2, 3, and 6, and 2 hr for the rest of HDACs and SIRTs at 30° C. with seal. Development Step: • 5. Add Developer with Trichostatin A (or Nicotinamide for SIRTs) to stop the reaction and to generate fluorescent color. • 6. Kinetic measurement for 1.5 hr with Envision with 15 min interval. (Ex/Em=360/460 nm) • 7. Take endpoint reading for analysis after the development reaches plateau.
For the compound `OCC(O)Cn1cnc2c(-c3ccccc3)cc(Nc3ncc(-c4nnc(C(F)F)o4)cn3)cc21` (centres unmarked) [Example 13, 3-(6-((5-(5-(difluoromethyl)-1,3,4-oxadiazol-2-yl)pyrimidin-2-yl)amino)-4-phenyl-1H-benzo[d]imidazol-1-yl)propane-1,2-diol], the inhibition (commonly the relative decrease from the control value, in per cent) at 10 µM is over 90%.

Consider `CN(C)C(=O)c1cc(Nc2ncc(-c3nnc(C(F)F)o3)cn2)cc2[nH]cnc12` [Example 8, 6-((5-(5-(difluoromethyl)-1,3,4-oxadiazol-2-yl)pyrimidin-2-yl)amino)-N,N-dimethyl-1H-benzo[d]imidazole-4-carboxamide], for which the inhibition at 10 µM is over 80%.

`OCCn1cnc2cc(Nc3ncc(-c4nnc(C(F)F)o4)cn3)cc(-c3ccccc3)c21` [Example 24, 2-(5-((5-(5-(difluoromethyl)-1,3,4-oxadiazol-2-yl)pyrimidin-2-yl)amino)-7-phenyl-1H-benzo[d]imidazol-1-yl)ethan-1-ol] yielded an inhibition at 10 µM of over 90%.

As to `C#CCn1cnc2c(-c3ccccc3)cc(Nc3ncc(-c4nnc(C(F)F)o4)cn3)cc21` [Example 47], the inhibition at 10 µM was over 90%.

As to `CNC(=O)n1cnc2c(-c3ccccc3)cc(Nc3ncc(-c4nnc(C(F)F)o4)cn3)cc21` [Example 28, 6-((5-(5-(difluoromethyl)-1,3,4-oxadiazol-2-yl)pyrimidin-2-yl)amino)-N-methyl-4-phenyl-1H-benzo[d]imidazole-1-carboxamide], the inhibition at 10 µM is over 90%.

Compound `CN(c1cc(-c2ccccc2)c2nc[nH]c2c1)c1ncc(-c2nnc(C(F)F)o2)cn1` [Example 7, N-(5-(5-(difluoromethyl)-1,3,4-oxadiazol-2-yl)pyrimidin-2-yl)-N-methyl-4-phenyl-1H-benzo[d]imidazol-6-amine] gave an inhibition at 10 µM of over 40%.

`OCCn1c(C(F)(F)F)nc2c(-c3ccccc3)cc(Nc3ncc(-c4nnc(C(F)F)o4)cn3)cc21` [Example 41, 2-(6-((5-(5-(difluoromethyl)-1,3,4-oxadiazol-2-yl)pyrimidin-2-yl)amino)-4-phenyl-2-(trifluoromethyl)-1H-benzo[d]imidazol-1-yl)ethan-1-ol] registered an inhibition at 10 µM of over 90%.

Consider `Cc1nc2c(-c3ccccc3)cc(Nc3ncc(-c4nnc(C(F)F)o4)cn3)cc2n1CCO` [Example 30, 2-(6-((5-(5-(difluoromethyl)-1,3,4-oxadiazol-2-yl)pyrimidin-2-yl)amino)-2-methyl-4-phenyl-1H-benzo[d]imidazol-1-yl)ethan-1-ol], for which the inhibition at 10 µM is over 90%.

For the compound `OC1CCN(CCn2cnc3c(-c4ccccc4)cc(Nc4ncc(-c5nnc(C(F)F)o5)cn4)cc32)C1` (centres unmarked) [Example 16, 1-(2-(6-((5-(5-(difluoromethyl)-1,3,4-oxadiazol-2-yl)pyrimidin-2-yl)amino)-4-phenyl-1H-benzo[d]imidazol-1-yl)ethyl)pyrrolidin-3-ol], the inhibition at 10 µM is over 90%.

Compound `O=S(=O)(NCCO)c1cc(Nc2ncc(-c3nnc(C(F)F)o3)cn2)cc2[nH]cnc12` [Example 11, 6-((5-(5-(difluoromethyl)-1,3,4-oxadiazol-2-yl)pyrimidin-2-yl)amino)-N-(2-hydroxyethyl)-1H-benzo[d]imidazole-4-sulfonamide] registered an inhibition at 10 µM of over 90%.

In the case of `OCCn1cnc2c(-c3ccc(F)cc3F)cc(Nc3ncc(-c4nnc(C(F)F)o4)cn3)cc21` [Example 32, 2-(6-((5-(5-(difluoromethyl)-1,3,4-oxadiazol-2-yl)pyrimidin-2-yl)amino)-4-(2,4-difluorophenyl)-1H-benzo[d]imidazol-1-yl)ethan-1-ol], the inhibition at 10 µM is over 90%.

The compound `FC(F)c1nnc(-c2cnc(Nc3cc(-c4cn[nH]c4)c4nc[nH]c4c3)nc2)o1` [Example 44, N-(5-(5-(difluoromethyl)-1,3,4-oxadiazol-2-yl)pyrimidin-2-yl)-4-(1H-pyrazol-4-yl)-1H-benzo[d]imidazol-6-amine] returned an inhibition at 10 µM of over 90%.

In the case of `CC(C)(C)c1cc(Nc2ncc(-c3nnc(C(F)F)o3)cn2)cc2c1ncn2CCO` [Example 34, 2-(4-(tert-butyl)-6-((5-(5-(difluoromethyl)-1,3,4-oxadiazol-2-yl)pyrimidin-2-yl)amino)-1H-benzo[d]imidazol-1-yl)ethan-1-ol], the inhibition at 10 µM is over 90%.

Regarding `Fc1c(Nc2ncc(-c3nnc(C(F)F)o3)cn2)cc2[nH]cnc2c1-c1ccccc1` [Example 38, N-(5-(5-(difluoromethyl)-1,3,4-oxadiazol-2-yl)pyrimidin-2-yl)-5-fluoro-4-phenyl-1H-benzo[d]imidazol-6-amine], the inhibition at 10 µM was over 90%.

On to `O=S(=O)(NCC1CC1)c1cc(Nc2ncc(-c3nnc(C(F)F)o3)cn2)cc2c1ncn2CCO` [Example 26, N-(cyclopropylmethyl)-6-((5-(5-(difluoromethyl)-1,3,4-oxadiazol-2-yl)pyrimidin-2-yl)amino)-1-(2-hydroxyethyl)-1H-benzo[d]imidazole-4-sulfonamide], for which the inhibition at 10 µM was over 90%.

Regarding `CN(C)c1nc2c(-c3ccccc3)cc(Nc3ncc(-c4nnc(C(F)F)o4)cn3)cc2[nH]1` [Example 6, N6-(5-(5-(difluoromethyl)-1,3,4-oxadiazol-2-yl)pyrimidin-2-yl)-N2,N2-dimethyl-4-phenyl-1H-benzo[d]imidazole-2,6-diamine], the inhibition at 10 µM was over 80%.

Compound `Fc1ccc(Cl)cc1-c1cc(Nc2ncc(-c3nnc(C(F)F)o3)cn2)cc2[nH]cnc12` [Example 45, 4-(5-chloro-2-fluorophenyl)-N-(5-(5-(difluoromethyl)-1,3,4-oxadiazol-2-yl)pyrimidin-2-yl)-1H-benzo[d]imidazol-6-amine] registered an inhibition at 10 µM of over 90%.

`OCCn1cnc2c(-c3cn[nH]c3)cc(Nc3ncc(-c4nnc(C(F)F)o4)cn3)cc21` [Example 46, 2-(6-((5-(5-(difluoromethyl)-1,3,4-oxadiazol-2-yl)pyrimidin-2-yl)amino)-4-(1H-pyrazol-4-yl)-1H-benzo[d]imidazol-1-yl)ethan-1-ol]: the inhibition at 10 µM is over 90%.

`FC(F)c1nnc(-c2cnc(NCc3cc(-c4ccccc4)c4nc[nH]c4c3)nc2)o1` [Example 20, 5-(5-(difluoromethyl)-1,3,4-oxadiazol-2-yl)-N-((4-phenyl-1H-benzo[d]imidazol-6-yl)methyl)pyrimidin-2-amine] had an inhibition at 10 µM of over 90%.

Compound `Cc1nc2c(-c3ccccc3)cc(Nc3ncc(-c4nnc(C(F)F)o4)cn3)cc2[nH]1` [Example 5, N-(5-(5-(difluoromethyl)-1,3,4-oxadiazol-2-yl)pyrimidin-2-yl)-2-methyl-4-phenyl-1H-benzo[d]imidazol-6-amine] yielded an inhibition at 10 µM of over 90%.

The compound `OCCn1cnc2c(-c3ccc(F)cc3C(F)(F)F)cc(Nc3ncc(-c4nnc(C(F)F)o4)cn3)cc21` [Example 33, 2-(6-((5-(5-(difluoromethyl)-1,3,4-oxadiazol-2-yl)pyrimidin-2-yl)amino)-4-(4-fluoro-2-(trifluoromethyl)phenyl)-1H-benzo[d]imidazol-1-yl)ethan-1-ol] returned an inhibition at 10 µM of over 90%.

The compound `FC(F)c1nnc(-c2cnc(Nc3cc(-c4ccccn4)c4nc[nH]c4c3)nc2)o1` [Example 10, N-(5-(5-(difluoromethyl)-1,3,4-oxadiazol-2-yl)pyrimidin-2-yl)-4-(pyridin-2-yl)-1H-benzo[d]imidazol-6-amine] yielded an inhibition at 10 µM of over 90%.

As for `CN(C)CCn1cnc2c(-c3ccccc3)cc(Nc3ncc(-c4nnc(C(F)F)o4)cn3)cc21` [Example 15, N-(5-(5-(difluoromethyl)-1,3,4-oxadiazol-2-yl)pyrimidin-2-yl)-1-(2-(dimethylamino)ethyl)-4-phenyl-1H-benzo[d]imidazol-6-amine], the inhibition at 10 µM was over 90%.
